# Assays:
# Format in all cases: in vivo
# Brachiaria decumbens = experiment: % weed control in soybean crop, spray application to soil; parameters: concentration or dose not given beside the values; conditions: average of 4 replications; for % Weed Control 7 DAA: 7 days after administration; for % Weed Control 14 DAA: 14 days after administration; for % Weed Control 21 DAA: 21 days after administration; for % Weed Control 28 DAA: 28 days after administration; for % Weed Control 35 DAA: 35 days after administration
# Excerpt: (§1) Below table gives summary of the formulation details and application details of Sulfentrazone and Mefenpyr-diethyl, Isoxadifen-ethyl and Cloquintocet-mexyl that were used in combination with Sulfentrazone for treatments. Application method was spray and applications were made to soil.
# (§2) Below table gives summary of the formulation details and application details of Sulfentrazone and Dichlormid, Fenclorim, Benoxacor, Flurazole and Fluxofenim that were used in combination with Sulfentrazone for treatments. Application method was spray and applications were made to soil.
# Below table gives summary of % weed control shown in soybean crop by untreated check, Sulfentrazone alone and combination of Sulfentrazone with Mefenpyr-diethyl, Isoxadifen-ethyl and Cloquintocet-mexyl at different application rates. % weed control was checked for weed Brachiaria decumbens.
# Below table gives summary of % weed control in soybean crop shown by untreated check, Sulfentrazone alone and combination of Sulfentrazone with Dichlormid, Fenclorim, Benoxacor, Flurazole and Fluxofenim at different application rates. % weed control was checked for weed Brachiaria decumbens.
# soybean plants = experiment: Number of soybean plants standing after herbicidal treatment; conditions: average of 4 replications; for Number of plants standing 14 DAA: 14 days after administration; for Number of plants standing 28 DAA: 28 days after administration
# Procedure: (§3) Experiments were carried out to evaluate the phytotoxicity, effect on plant height and effect on number of plants standing after treatments with combinations of one or more triazolone herbicides with one or more safeners.
# as §1, §2
# Below table gives summary of effect on number of soybean plants standing after herbicidal treatment shown by untreated check, Sulfentrazone alone and combination of Sulfentrazone with Mefenpyr-diethyl, Isoxadifen-ethyl and Cloquintocet-mexyl at different application rates.
# Below table gives summary of effect on number of soybean plants standing after herbicidal treatment shown by untreated check, Sulfentrazone alone and combination of Sulfentrazone with Dichlormid, Fenclorim, Benoxacor, Flurazole and Fluxofenim at different application rates.
# soybean plant = experiment: Effect on plant height of soybean plant; conditions: average of 4 replications; for Plant height 14 DAA: 14 days after administration; for Plant height 28 DAA: 28 days after administration
# Procedure: as §3, §1, §2
# Below table gives summary of effect on plant height of soybean plant shown by untreated check, Sulfentrazone alone and combination of Sulfentrazone with Mefenpyr-diethyl, Isoxadifen-ethyl and Cloquintocet-mexyl at different application rates.
# Below table gives summary of effect on plant height of soybean plant shown by untreated check, Sulfentrazone alone and combination of Sulfentrazone with Dichlormid, Fenclorim, Benoxacor, Flurazole and Fluxofenim at different application rates.
# [1] = treatments 9-20 (rates in Table 2)
# [2] = treatments 1-8 (rates in Table 1)
Structure (SMILES),% Weed Control 7 DAA (Brachiaria decumbens; [1]) [%],% Weed Control 14 DAA (Brachiaria decumbens; [1]) [%],% Weed Control 21 DAA (Brachiaria decumbens; [1]) [%],% Weed Control 28 DAA (Brachiaria decumbens; [1]) [%],% Weed Control 35 DAA (Brachiaria decumbens; [1]) [%],Number of plants standing 14 DAA (soybean plants; [1]),Number of plants standing 28 DAA (soybean plants; [1]),Plant height 14 DAA (soybean plant; [1]),Plant height 28 DAA (soybean plant; [1]),% Weed Control 7 DAA (Brachiaria decumbens; [2]) [%],% Weed Control 14 DAA (Brachiaria decumbens; [2]) [%],% Weed Control 21 DAA (Brachiaria decumbens; [2]) [%],% Weed Control 28 DAA (Brachiaria decumbens; [2]) [%],% Weed Control 35 DAA (Brachiaria decumbens; [2]) [%],Number of plants standing 14 DAA (soybean plants; [2]),Number of plants standing 28 DAA (soybean plants; [2]),Plant height 14 DAA (soybean plant; [2]),Plant height 28 DAA (soybean plant; [2])
Cc1nn(-c2cc(NS(C)(=O)=O)c(Cl)cc2Cl)c(=O)n1C(F)F [Treatment 10],100,100,100,100,100,5.3,5.3,6.65,10.90,–,–,–,–,–,–,–,–,–
Cc1nn(-c2cc(NS(C)(=O)=O)c(Cl)cc2Cl)c(=O)n1C(F)F [Treatment 2],–,–,–,–,–,–,–,–,–,100,100,100,100,100,5.3,4.5,2.90,5.15

# Source: patent publication US12593846B2, “Combinations of triazolone herbicides with safeners” (priority 2020, dated 2026)
